From ChEMBL document CHEMBL1275418, “IMP-15-producing Pseudomonas aeruginosa strain isolated in a U.S. medical center: a recent arrival from Mexico” (2008)

Experiments:
Format in all cases: functional
[1] = system: Pseudomonas aeruginosa; assay: Antibacterial activity against Pseudomonas aeruginosa 1750J expressing beta-lactamase IMP-15 by Etest in presence of EDTA
[2] = system: Pseudomonas aeruginosa; assay: Antibacterial activity against Pseudomonas aeruginosa isolates by Etest
[3] = system: Pseudomonas aeruginosa; assay: Antibacterial activity against Pseudomonas aeruginosa 1750J expressing beta-lactamase IMP-15 by Etest
[4] = system: Pseudomonas aeruginosa; assay: Antibacterial activity against Pseudomonas aeruginosa 1750J expressing beta-lactamase IMP-15 by Etest in presence of beta-lactamase inhibitor Tazobactam

Row | Molecule | MIC [1] [µg/mL] | MIC [2] [µg/mL] | MIC [3] [µg/mL] | MIC [4] [µg/mL]
1 | O=C(O)C1=CC[C@@H]2CC(=O)N12 [CARBAPENEM] | 8 | > 256 |  | 
2 | CC(C)(O/N=C(\C(=O)N[C@@H]1C(=O)N2C(C(=O)[O-])=C(C[n+]3ccccc3)CS[C@H]12)c1csc(N)n1)C(=O)O [CEFTAZIDIME] |  | ≥ 16 | > 256 | 
3 | O=C(O)c1cn(C2CC2)c2cc(N3CCNCC3)c(F)cc2c1=O [CIPROFLOXACIN] |  |  | > 32 | 
4 | C[C@@H](O)[C@H]1C(=O)N2C(C(=O)O)=C(S[C@@H]3CN[C@H](C(=O)Nc4cccc(C(=O)O)c4)C3)[C@H](C)[C@H]12 [ERTAPENEM] |  |  | > 32 | 
5 | C[C@@H](O)[C@H]1C(=O)N2C(C(=O)O)=C(SCCNC=N)C[C@H]12 [IMIPENEM ANHYDROUS] |  | ≥ 8 | > 32 | 
6 | C[C@@H](O)[C@H]1C(=O)N2C(C(=O)O)=C(S[C@@H]3CN[C@H](C(=O)N(C)C)C3)[C@H](C)[C@H]12 [MEROPENEM] |  | ≥ 8 | > 32 | 
7 | CCN1CCN(C(=O)N[C@@H](C(=O)N[C@@H]2C(=O)N3[C@@H]2SC(C)(C)[C@@H]3C(=O)O)c2ccccc2)C(=O)C1=O [PIPERACILLIN] |  |  |  | > 256
8 | NC[C@H]1O[C@H](O[C@H]2[C@H](O)[C@@H](O[C@H]3O[C@H](CO)[C@@H](O)[C@H](N)[C@H]3O)[C@H](N)C[C@@H]2N)[C@H](N)C[C@@H]1O [TOBRAMYCIN] |  |  | > 256 | 
9 | GENTAMICIN |  |  | > 256 | 
